Experimental findings from ChEMBL document CHEMBL4052598, “Discovery of C-Glycosylpyranonaphthoquinones in Streptomyces sp. MBT76 by a Combined NMR-Based Metabolomics and Bioinformatics Workflow” (2017) are described below.

Type in all cases: functional
One assay deals with Pseudomonas aeruginosa. Briefly: Antimicrobial activity against Pseudomonas aeruginosa PAO1 assessed as growth inhibition zone after 18 hrs by disc diffusion method. (In agar diffusion tests the substance spreads into inoculated agar from a disc or well.)
Another assay relates to Bacillus subtilis. Kind of assay: Antimicrobial activity against Bacillus subtilis subsp. subtilis str. 168 assessed as growth inhibition zone after 18 hrs by disc diffusion method.
The test system of another assay is Staphylococcus aureus. Briefly: Antimicrobial activity against Staphylococcus aureus CECT976 assessed as growth inhibition zone after 18 hrs by disc diffusion method.
In another assay the test system is Escherichia coli. Briefly: Antimicrobial activity against Escherichia coli JM109 assessed as growth inhibition zone after 18 hrs by disc diffusion method.

The source made the active and inactive calls. The rule behind the calls is not given here.

On to `CN[C@H]1CC[C@H](c2ccc(O)c3c2C(=O)C24OC2([C@@H](C)O[C@@H]2CC(=O)O[C@@H]24)[C@H]3O)O[C@@H]1C` (stereo partly specified), for which the inhibition result in the assay on Pseudomonas aeruginosa and in the assay with Escherichia coli was “inactive” each time. Besides, the inhibition result in the assay on Bacillus subtilis and in the assay with Staphylococcus aureus was “Active” throughout.
As to `CN[C@H]1CC[C@H](c2ccc(O)c3c2C(=O)C24OC2([C@@H](C)O[C@H](CC(=O)O)[C@@H]4O)[C@H]3O)O[C@@H]1C` (stereo partly specified), the inhibition entry in the assay on Pseudomonas aeruginosa and with Escherichia coli was “inactive” each time. Further, the inhibition entry in the assay with Bacillus subtilis and in the assay with Staphylococcus aureus was “Active” throughout.
Turning to `CC1(C)S[C@@H]2[C@H](NC(=O)[C@H](N)c3ccccc3)C(=O)N2[C@H]1C(=O)O` [AMPICILLIN], the “inhibition zone (IZ)” value in the assay with Pseudomonas aeruginosa amounted to 7 mm; in the assay with Bacillus subtilis, 23 mm; in the assay with Staphylococcus aureus, 10 mm; with Escherichia coli, 20 mm.
In the same order, the values of `CN[C@@H]1[C@@H](O[C@H]2O[C@H](CO)[C@@H](N)[C@H](O)[C@H]2O)OC2C[C@@H](N)[C@@H](O[C@H]3[C@H](O)[C@@H](O)[C@H](N)C[C@@H]3N)OC2[C@@H]1O` (stereo partly specified) [APRAMYCIN] are 15 mm, 10 mm, 7 mm and 7 mm.
